Reference: publication PMC10793205, “Differential transmetallation of complexes of the anti-cancer thiosemicarbazone, Dp4e4mT: effects on anti-proliferative efficacy, redox activity, oxy-myoglobin and oxy-hemoglobin oxidation” (Chemical Science, 2023)
“Also recorded” adds a separate entry of the source.

What was measured:
H2DCF = test: Redox activity: H2DCF oxidation to DCF (cell-free, L-cysteine/H2O2); type: biochemical; conditions: 10 μM, pH 7.4 and pH 5, no added CuCl2
Description: Redox activity in cells was examined using an established in vitro method examining 2′,7′-dichlorodihydrofluorescein (H2DCF) oxidation to fluorescent 2′,7′-dichlorofluorescein (DCF) at cytosolic pH (pH 7.4 using HBSS buffer) relative to lysosomal pH (pH 5; acetate buffer; Fig. 5).[25,26,28,42,46] To these buffers containing the complexes, L-cysteine (100 μM) was added as a reducing agent, followed by H2DCF (5 μM). Then, hydrogen peroxide (H2O2; 100 μM) was added to initiate hydroxyl radical generation. Both [Cu(DpC)Cl2] and [Cu(DpC)2] were used as positive controls due to their documented redox activity.[28,42] In contrast, the ligand, DpC, was implemented as a negative control, as it is redox inert.[28,42] As an additional control, the established Cu chelator, tetrathiomolybdate (TM), was utilized to remove Cu from the thiosemicarbazone complexes to indicate its role in their redox activity.[27,28,42] Additionally, UV-vis spectroscopy (300–700 nm) of the same solution for each complex was also performed to understand both the oxidation of H2DCF and the formation of fluorescent DCF upon excitation at 503 nm (Fig. S20A–F and S21A–F ^†). […]
ROS Generation Analysis with H 2DCF-DA
The generation of reactive oxygen species (ROS) was assessed by examining the oxidation of H2DCF.2, 8, 13, 14 Solutions containing CuCl2, TM, DpC, Dp4e4mT, [Fe(DpC)2]+, [Cu(DpC)Cl2], [Cu(DpC)2] and the Dp4e4mT complexes were prepared at a concentration of 10 µM in either HBSS (pH 7.4) or 150 mM acetate buffer (pH 5) to simulate the conditions of the cytosol and lysosome, respectively.2, 8, 14, 15 The H2DCF was prepared by deacetylation of DCFH-DA (Sigma-Aldrich) through alkaline hydrolysis using NaOH. 16
In these prepared solutions, L-cysteine (100 µM) was added as a reducing agent and then H2DCF (5 µM) added. The initiation of hydroxyl radical generation was achieved by the addition of hydrogen peroxide (H2O2; 100 µM). As a comparative benchmark, HBSS or acetate buffer containing L-cysteine, H2DCF, and H2O2, but lacking ligands or metal complexes, was employed as a control. Fluorescence measurements were carried out using a CLARIOstar Plus microplate reader (BMG LABTECH, Australia) with an excitation wavelength of 485 nm and an emission wavelength of 530 nm. 8, 14

[1] = Cyclic voltammetry (redox potentials); type: physicochemical; conditions: 1 mM in MeCN/H2O 7 : 3 (v/v) + 0.1 M Et4NClO4, sweep rate 100 mV s^−1
Excerpt: The redox potentials of Fe(III)- and Cu(II)-thiosemicarbazone complexes have been extensively studied and are important for understanding intracellular redox activity and ROS generation.[23,27,28,42] Considering this, the electrochemical properties of [Fe(Dp44mT)2]^+, [Fe(DpC)2]^+, [Fe(Dp4e4mT)2]^+, [Co(Dp4e4mT)2]^+, [Ni(Dp4e4mT)2], [Cu(Dp4e4mT)Cl], [Ga(Dp4e4mT)2]^+, and [Pd(Dp4e4mT)Cl] were investigated with cyclic voltammetry in MeCN : H2O (70 : 30 v/v; Fig. 4A and B). This solvent system was implemented to provide sufficient solubility and because it has been used by our laboratories previously to measure potentials of thiosemicarbazone complexes enabling effective comparison.[28,45,57–59]
Fig. 4 Cyclic voltammograms of: (A) [Fe(Dp44mT)2]^+, [Fe(DpC)2]^+, and [Fe(Dp4e4mT)2]^+. (B) [Co(Dp4e4mT)2]^+, [Ni(Dp4e4mT)2], [Cu(Dp4e4mT)Cl], [Ga(Dp4e4mT)2]^+, and [Pd(Dp4e4mT)Cl] (1 mM in MeCN/H2O 7 : 3 (v/v) + 0.1 M Et4NClO4) at a sweep rate of 100 mV s^−1. The voltammograms were recorded using a glassy carbon working electrode versus a […] (NHE). […]
Cyclic voltammograms were acquired for the Fe(III), Co(III), Ni(II), Cu(II), Ga(III), and Pd(II) complexes of Dp4e4mT utilizing a BAS100B/W potentiostat, equipped with an aqueous Ag/AgCl reference electrode, a glassy carbon working electrode, and a Pt wire auxiliary […]
electrode. […]

oxy-Mb = target: T1, oxy-Mb (Homo sapiens, UniProt P02144); test: Oxidation of purified oxy-Mb to met-Mb (UV-vis); type: biochemical; conditions: 10 μM agent, oxy-Mb 40 μM, 3 h incubation, 20 °C
T1 sequence (P02144 1-154): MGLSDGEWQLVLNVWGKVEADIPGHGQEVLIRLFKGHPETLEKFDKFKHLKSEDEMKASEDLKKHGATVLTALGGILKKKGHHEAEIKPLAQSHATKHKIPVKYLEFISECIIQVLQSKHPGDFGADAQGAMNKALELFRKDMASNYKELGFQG
Excerpt: As such, it was important to examine the effect of the Dp4e4mT complexes on oxy-Hb and oxy-Mb oxidation (Fig. 6 and 7). Comparisons were made to three controls, namely DFO, Dp44mT, and DpC, as well as their Fe(III) complexes. […] In contrast, the Fe(III) complexes of Dp44mT and DpC were positive controls, as they induce oxidation of oxy-Mb.[28,39,42]
Fig. 6 (A and B) Investigation of the effects of Dp4e4mT and its Fe(III), Co(III), Ni(II), Cu(II), Zn(II), Ga(III), and Pd(II) complexes versus the positive controls DFO, Dp44mT, DpC and their Fe(III) complexes (10 μM) on met-Mb generation (% zero time) after an incubation of 1–3 h/20 °C with purified oxy-Mb (40 μM). Results are mean ± SD (3 experiments).
Spectroscopic Examination of Met-Mb and Met-Hb Formation from Oxy-Mb and Oxy- […]
Oxy-Mb and oxy-Hb solutions were prepared following established protocols.8, 17 In brief, solutions of reduced Mb and Hb in PBS (pH 7.2) were prepared by adding 1.2 mL of Na2S2O4 (12 mM) to 38 mL of met-Mb and met-Hb solution (40 μM). 17 Subsequently, oxy-Mb and oxy-Hb were generated by gently passing 150 mL of oxygen (from an air-filled syringe) through the solution containing reduced Mb and Hb, effectively eliminating any residual Na2S2O4. Following this, the oxy-Mb and oxy-Hb solutions were passed through a PD-10 column prepacked with 8.3 mL of Sephadex G-25 and equilibrated with PBS (pH 7.2). 17 In experiments examining the activity of the agents, all complexes were dissolved in 1,2-propanediol, then diluted to 10 µM in PBS (pH 7.2). The experiments were conducted over incubations of 0 to 3 h with the agents. UV-Vis spectra covering the range of 300 to 700 nm were recorded at a temperature of 20°C using a Shimadzu UV−Vis spectrophotometer (UV-1800; Shimadzu, Kyoto, Japan). Concentrations of met-Mb and met-Hb, as well as reduced-Mb and reduced-Hb, were determined at 409 nm and 435 nm, respectively. Concentrations of oxy-Mb and oxy-Hb were determined at 544 nm and 582 nm, respectively. 17

[2] = target: T2, oxy-Hb in intact human erythrocytes (Homo sapiens, UniProt P68871+P69905); test: Oxidation of oxy-Hb in intact human erythrocytes; type: cell-based; conditions: 10 μM, 3 h/37 °C
T2 construct: Physiologically, oxy-Hb is found in erythrocytes; endogenous in cells; host or cells: intact human erythrocytes from fresh blood of healthy donors
T2 sequence (P69905 2-142 limits assumed): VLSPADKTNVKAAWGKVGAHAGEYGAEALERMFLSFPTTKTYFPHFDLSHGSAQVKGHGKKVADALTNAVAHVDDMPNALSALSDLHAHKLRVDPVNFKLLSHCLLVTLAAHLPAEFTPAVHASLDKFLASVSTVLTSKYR
T2 sequence (P68871 2-147 limits assumed): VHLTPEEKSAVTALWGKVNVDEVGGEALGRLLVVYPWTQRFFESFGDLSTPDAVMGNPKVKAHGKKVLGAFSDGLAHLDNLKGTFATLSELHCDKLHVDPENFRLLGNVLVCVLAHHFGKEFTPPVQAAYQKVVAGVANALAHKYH
Description: Fig. 7 (A and B) Investigation of the effects of Dp4e4mT and its Fe(III), Co(III), Ni(II), Cu(II), Zn(II), Ga(III), and Pd(II) complexes versus DFO, Dp44mT, DpC and their Fe(III) complexes (10 μM) on met-Hb generation (% zero time) after an incubation of 1–3 h/20 °C with purified oxy-Hb (40 μM). (C) Investigation of the effects of Dp4e4mT and its Fe(III), Co(III), Ni(II), Cu(II), Zn(II), Ga(III), or Pd(II) complexes relative to the positive controls DFO, Dp44mT, DpC, and their Fe(III) complexes (10 μM) on oxy-Hb oxidation in intact human erythrocytes after a 3 h/37 °C incubation. Results are mean ± SD (3 experiments).
Physiologically, oxy-Hb is found in erythrocytes, and in the current investigation, the ligands and complexes (10 μM) were incubated with intact human erythrocytes for 3 h/37 °C to assess their effects on oxy-Hb oxidation (Fig. 7C). As expected from our previous studies,[28,39] […]
In experiments examining the activity of the agents, all complexes were dissolved in 1,2-propanediol, then diluted to 10 µM in PBS (pH 7.2). […]
1800; Shimadzu, Kyoto, Japan). Concentrations of met-Mb and met-Hb, as well as reduced-Mb and reduced-Hb, were determined at 409 nm and 435 nm, respectively. Concentrations of oxy-Mb and oxy-Hb were determined at 544 nm and 582 nm, respectively. 17 Oxidation of Oxy-Hb in Human Erythrocytes
Oxidation of oxy-Hb in human erythrocytes was performed by standard methods using fresh blood from healthy donors after collection in Vacutainer® collection tubes (BD, Plymouth, UK).8 Erythrocytes centrifuged (480 xg/5 min/4°C) and then washed in HBSS, and subsequently resuspended in this buffer. Incubation of the erythrocytes (15% hematocrit) in the absence or presence of the agents (10 μM) was performed for 3 h/37°C. The erythrocytes were […]

[SH-].[SH-].[S]=[Mo]=[S] [TM, tetrathiomolybdate, reference compound]
DCF fluorescence (H2DCF oxidation) of agent alone (H2DCF): did not significantly (p > 0.05) increase DCF fluorescence

[Cl][Cu][Cl] [CuCl2, reference compound]
DCF fluorescence (H2DCF oxidation) of agent alone (H2DCF): significantly (p < 0.0001–0.01) increased DCF fluorescence

CN(C([S-])=NN=C(c1ccccn1)c1ccccn1)C1CCCCC1.CN(C([S-])=NN=C(c1ccccn1)c1ccccn1)C1CCCCC1.[Fe+3] [[Fe(DpC)2]^+, reference compound]
Redox potential (mV vs. NHE) [1]: +149 mV vs. NHE
oxy-Mb oxidation (met-Mb generation) (oxy-Mb): 161 % of the control
oxy-Hb oxidation in erythrocytes versus the control (in words) [2]: did not induce any significant (p > 0.05) increase in oxy-Hb oxidation

CN(C)C([S-])=NN=C(c1ccccn1)c1ccccn1.CN(C)C([S-])=NN=C(c1ccccn1)c1ccccn1.[Fe+3] [[Fe(Dp44mT)2]^+, reference compound]
Redox potential (mV vs. NHE) [1]: +166 mV vs. NHE
oxy-Mb oxidation (met-Mb generation) (oxy-Mb): 222 % of the control
oxy-Hb oxidation to met-Hb in erythrocytes ([2]; control 0.5%): 34.4 % of the total

CN(C(=S)NN=C(c1ccccn1)c1ccccn1)C1CCCCC1.[Cl-].[Cl-].[Cu+2] [[Cu(DpC)Cl2], reference compound]
DCF fluorescence (H2DCF oxidation) of agent alone (H2DCF): significantly (p < 0.0001–0.01) increased DCF fluorescence; also recorded: greatest efficacy at increasing DCF fluorescence

CC(=O)N([O-])CCCCCNC(=O)CCC(=O)N([O-])CCCCCNC(=O)CCC(=O)N([O-])CCCCCN.[Fe+3] [DFO Fe(III) complex, reference compound]
oxy-Hb oxidation in erythrocytes versus the control (in words) [2]: did not induce any significant (p > 0.05) increase in oxy-Hb oxidation
